# Experimental data: patent US10988465B2, “CXCR4 inhibitors and uses thereof” (X4 Pharmaceuticals, Inc., priority 2016, dated 2021)
# What was measured:
# [1] = in vitro; details: human, Caco-2, pH 7.4
# Procedure: Example 37: Caco-2 Permeability Assay
# The goal of this assay was to evaluate the intestinal absorption potential of drug candidates using Caco-2 cell lines.
# HBSS buffer with 0.3% DMSO and 5 μM LY: add 150 μL DMSO and 50 μL LY (5 mM) into 50 ml HBSS buffer (pH 7.4).
# HBSS buffer with 0.1% DMSO and 5 μM LY: add 50 μL DMSO and 50 μL LY (5 mM) into 50 mL HBSS buffer (pH 7.4).
# HBSS buffer with 0.3% DMSO: add 150 μL DMSO into 50 ml HBSS buffer (pH 7.4).
# HBSS buffer with 0.1% DMSO: add 50 μL DMSO into 50 ml HBSS buffer (pH 7.4).
# Prepare HBSS buffer with 0.4% DMSO: add 200 μL DMSO into 50 ml HBSS buffer (pH 7.4).
# Prepare HBSS buffer with 0.4% DMSO and 5 μM LY: add 200 μL DMSO and 50 μL LY (5 mM) into 50 ml HBSS buffer (pH 7.4).
# 4. Measure TEER Take cell culture plate out of incubator, wash the cell monolayers with HBSS buffer, and then measure TEER values at Rm temperature. 5. Centrifuge Centrifuge the compound solution (from step 3) at 4000 rpm for 5 min before loading to donor chambers. 6. Dosing Add solution based on the volumes listed in the following table (make sure to take extra 100 μL of donor sample for T0 as Backup).
# 7. Apical LYT0 samples To determine LY concentration in the apical chember, take 100 μL sample from apical chambers into an opaque plate for LYT0. 8. Prewarm Prewarm apical and basolateral plates at 37° C. for about 5 min, then begin transport by placing the apical plate onto basolateral plate. 9. Incubation Keep the plates in incubator at 37° C. for 90 min. 10. Standard Curve preparation
# 11. Transport termination Separate the apical plate from the basolateral plate after 90-min incubation.
# Receiver sample: 60 μL of receiver sample+60 μL ACN with IS (Osalmid or Imipramine)
# Study details: Test concentration 10 μM
# Test systems: Caco-2/HBSS solution
# Incubation conditions: 0, 90 min at 37° C.
# Sample size: Duplicates (n=2)
# Bioanalytical method: LC-MS/MS
# For Millicell-24 Cell Culture Plates: surface area of the membrane=0.7 cm^2, VA=0.8 mL (A-to-B) or 0.4 mL (B-to-A)
# 1. Papp values were calculated based on calculated concentrations.
# The compound numbers correspond to the compound numbers in Table 1.
# [2] = molecular target: T1, CXCR-4 transfected U87 cell line (U87.CXCR4) (Homo sapiens, UniProt P61073); experiment: Intracellular CXCL-12-induced calcium mobilization assay (FLIPR); assay type: cell-based; details: U87.CXCR4 cells; CXCL-12 25-50 ng/mL; compound added 15 min before; read-out: IC50 CXCL-12 Ca^2+ flux U87.CXCR4+
# T1 construct: expressed in transfected cells; host or cells: U87 (U87.CXCR4)
# Procedure: Example 36: REGA Screening Assay
# Intracellular CXCL-12-Induced Calcium Mobilization Assay
# Intracellular calcium mobilization induced by chemokines or chemokine-derived peptides were evaluated using a calcium responsive fluorescent probe and a FLIPR system. The CXCR-4 transfected U87 cell line (U87.CXCR4) cells were seeded in gelatine-coated black-wall 96-well plates at 20,000 cells per well and incubated for 12 hours. Cells were then loaded with the fluorescent calcium probe Fluo-2 acetoxymethyl at 4 μM final concentration in assay buffer (Hanks' balanced salt solution with 20 mM HEPES buffer and 0.2% bovine serum albumin, pH 7.4) for 45 min at 37° C. The intracellular calcium mobilization induced by the CXCL-12 (25-50 ng/mL) was then measured at 37° C. by monitoring the fluorescence as a function of time in all the wells simultaneously using a fluorometric imaging plate reader (FLIPR Tetra, Molecular Devices).
# [3] = molecular target: T2, Jurkat cells expressing CXCR4 (Homo sapiens, UniProt P61073); experiment: Chemokine (CXCL12-AF647) binding inhibition assay; details: CXCL12-AF647 25 ng/mL, read-out: IC50 CXCL-12 binding Jurkat
# T2 construct: endogenous in cells; host or cells: Jurkat
# Procedure: Chemokine (CXCL12-AF647) Binding Inhibition Assay
# Jurkat cells expressing CXCR4 were washed once with assay buffer (Hanks' balanced salt solution with 20 mM HEPES buffer and 0.2% bovine serum albumin, pH 7.4) and then incubated for 15 min at room temperature with the test compounds diluted in assay buffer at dose-dependent concentrations. Subsequently, CXCL12-AF647 (25 ng/mL) was added to the compound-incubated cells. The cells were incubated for 30 min at room temperature. Thereafter, the cells were washed twice in assay buffer, fixed in 1% paraformaldehyde in PBS, and analyzed on the FL4 channel of a FACSCalibur flow cytometer equipped with a 635-nm red diode laser (Becton Dickinson, San Jose, Calif., USA).
# The percentages of inhibition of CXCL12-AF647 binding were calculated according to the formula: [1−((MFI−MFINC)/(MFIPC−MFINC))]×100 where MFI is the mean fluorescence intensity of the cells incubated with CXCL12-AF647 in the presence of the inhibitor, MFINC is the mean fluorescence intensity measured in the negative control (i.e., autofluorescence of unlabeled cells), and MFIPC is the mean fluorescence intensity of the positive control (i.e., cells exposed to CXCL12-AF647 alone).
# T2 sequence (P61073 whole entry): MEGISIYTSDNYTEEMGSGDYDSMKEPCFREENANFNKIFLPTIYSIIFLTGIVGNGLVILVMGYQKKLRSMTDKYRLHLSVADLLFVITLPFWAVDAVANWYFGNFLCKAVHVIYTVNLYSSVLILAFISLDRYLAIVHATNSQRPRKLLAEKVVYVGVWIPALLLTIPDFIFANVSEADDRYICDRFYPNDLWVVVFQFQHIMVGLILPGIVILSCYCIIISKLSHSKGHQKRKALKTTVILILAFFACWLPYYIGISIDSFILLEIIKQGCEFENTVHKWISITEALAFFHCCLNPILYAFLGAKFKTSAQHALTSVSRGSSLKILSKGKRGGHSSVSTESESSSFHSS
# T1 sequence (P61073 whole entry): as above
SMILES,"Papp A→B at 90 min, 10 μM [1] [×10⁻⁶ cm/s]","Papp B→A at 90 min, 10 μM [1] [×10⁻⁶ cm/s]","efflux ratio at 90 min, 10 μM [1]",IC50 [2] [nM],IC50 [3] [nM]
"CNCCCn1c([C@H]2CCC[C@@H](c3ncccc3C)N2C)nc2ccccc21 [I-16, N-methyl-3-(2-((2R,6S)-1-methyl-6-(3-methylpyridin-2-yl)piperidin-2-yl)-1H-benzo[d]imidazol-1-yl)propan-1-amine]",0.1 to 10,10 to 30,> 30,0.01 to 100,0.01 to 100
Cc1cccnc1[C@@H]1CCC[C@H](c2nc3cccc(N4CC5CCC(C4)N5C)c3[nH]2)N1 [I-118],0.1 to 10,> 30,10 to 30,0.01 to 100,0.01 to 100
CCc1cccnc1[C@@H]1CCC[C@H](c2nc3cccc(N4CCN(C)CC4)c3[nH]2)N1C [I-114],10 to 30,10 to 30,0.1 to 10,0.01 to 100,0.01 to 100
Cc1cccnc1[C@@H]1CCC[C@H](c2nc3cccc(N4CCN(C)CC4)c3n2C)N1 [I-123],0.1 to 10,10 to 30,0.1 to 10,0.01 to 100,0.01 to 100
Cc1ccnc([C@@H]2CCC[C@H](c3nc4cccc(N5CCN(C)CC5)c4[nH]3)N2C)c1C [I-115],0.1 to 10,0.1 to 10,0.1 to 10,100 to 1000,0.01 to 100
Cc1cccnc1[C@@H]1CCC[C@H](c2nccn2CCc2ccccn2)N1 [I-177],10 to 30,10 to 30,0.1 to 10,≥ 1000,≥ 1000
CNCCCCn1c([C@H]2CCC[C@@H](c3ncccc3C)N2C)nc2ccccc21 [I-37],0.1 to 10,10 to 30,10 to 30,≥ 1000,0.01 to 100
"Cc1cccnc1[C@@H]1CCC[C@H](c2nc3ccccc3n2CCCNC2CCOCC2)N1C [I-19, N-(3-(2-((2R,6S)-1-methyl-6-(3-methylpyridin-2-yl)piperidin-2-yl)-1H-benzo[d]imidazol-1-yl)propyl)tetrahydro-2H-pyran-4-amine]",0.1 to 10,10 to 30,0.1 to 10,0.01 to 100,0.01 to 100
Cc1cccnc1[C@@H]1CCC[C@H](c2nc3c(N4CCN(C)CC4)cccc3n2C)N1 [I-141],10 to 30,10 to 30,0.1 to 10,≥ 1000,≥ 1000
Cc1cccnc1[C@@H]1CCC[C@H](c2nccn2C2CCN(C3CC3)CC2)N1C [I-174],10 to 30,10 to 30,0.1 to 10,100 to 1000,0.01 to 100
CN1CCN(c2cccc3nc([C@H]4CCC[C@@H](c5nccn6cccc56)N4C)[nH]c23)CC1 (stereo in doubt) [I-90],10 to 30,10 to 30,0.1 to 10,100 to 1000,0.01 to 100
CN1C2CCC1CN(c1cccc3nc([C@H]4CCC[C@@H](c5ncccc5Cl)N4)[nH]c13)C2 [I-119],10 to 30,10 to 30,0.1 to 10,100 to 1000,0.01 to 100
Cc1cccnc1[C@@H]1C[C@@H](O)C[C@H](c2nc3cccc(N4CCN(C)CC4)c3[nH]2)N1C [I-101],0.1 to 10,10 to 30,> 30,0.01 to 100,0.01 to 100
Cc1cccnc1[C@@H]1CCC[C@H](c2ncc[nH]2)N1Cc1ccccc1-n1cccn1 [I-166],10 to 30,10 to 30,0.1 to 10,≥ 1000,100 to 1000
Cc1cccnc1[C@@H]1CCC[C@H](c2nc3cccc(N4CCN(C)C(C)(C)C4)c3[nH]2)N1C [I-55],10 to 30,10 to 30,0.1 to 10,0.01 to 100,0.01 to 100
Cc1ccnc([C@@H]2CCC[C@H](c3nc4cccc(N5CCN(C)CC5)c4[nH]3)N2C)c1Cl [I-116],10 to 30,10 to 30,0.1 to 10,100 to 1000,0.01 to 100
CN(C)CCCn1ccnc1[C@H]1CCC[C@@H](c2ncccc2Cl)N1C [I-169],0.1 to 10,> 30,0.1 to 10,100 to 1000,0.01 to 100
"Cc1cccnc1[C@@H]1CCC[C@H](c2nc3cccc(C4CCNCC4)c3[nH]2)N1C [I-11, 2-((2R,6S)-1-methyl-6-(3-methylpyridin-2-yl)piperidin-2-yl)-7-(piperidin-4-yl)-1H-benzo[d]imidazole]",0.1 to 10,10 to 30,> 30,0.01 to 100,0.01 to 100
CN1CCN(c2cccc3nc([C@H]4CCC[C@@H](c5ncn6ccccc56)N4C)[nH]c23)CC1 [I-93],10 to 30,10 to 30,0.1 to 10,≥ 1000,100 to 1000
